From article PMC12785651, “The Role of Active Site Hydrophobic Interactions in Facilitating Catalysis in Human Terminal Deoxynucleotidyl Transferase” (International Journal of Molecular Sciences, 2025)

Tests used:
[1] = molecular target: T1, TdT (human terminal deoxynucleotidyl transferase, hTdT) (Homo sapiens, UniProt P04053); test: microscale thermophoresis (Monolith NT.[…]); assay type: binding; conditions: 50 mM Tris-HCl pH 8.0, 5 mM MnCl2, 37 °C; no primer listed; Hill coefficient fixed at 2; labelled compound (fluorescein); read-out: Kd, μM / Flu-dUTP
T1 construct: gene DNTT; expression per earlier publication
T1 sequence (P04053 whole entry): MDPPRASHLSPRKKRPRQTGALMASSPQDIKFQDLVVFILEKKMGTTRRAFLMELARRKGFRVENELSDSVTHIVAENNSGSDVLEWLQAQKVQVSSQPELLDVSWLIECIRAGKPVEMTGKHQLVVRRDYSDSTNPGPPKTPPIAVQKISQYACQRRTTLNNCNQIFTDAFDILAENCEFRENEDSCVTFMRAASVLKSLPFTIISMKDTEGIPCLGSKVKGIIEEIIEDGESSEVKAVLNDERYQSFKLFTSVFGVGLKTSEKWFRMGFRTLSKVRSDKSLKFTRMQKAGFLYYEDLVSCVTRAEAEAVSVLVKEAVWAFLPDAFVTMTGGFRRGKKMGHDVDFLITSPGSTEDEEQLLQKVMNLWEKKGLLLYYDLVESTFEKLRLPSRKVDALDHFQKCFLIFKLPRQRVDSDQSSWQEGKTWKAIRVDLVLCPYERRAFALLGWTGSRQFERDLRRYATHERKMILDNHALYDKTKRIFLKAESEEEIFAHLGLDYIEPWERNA

[2] = molecular target: T2, TdT (human terminal deoxynucleotidyl transferase, hTdT) (Homo sapiens, UniProt P04053, F404W); test: microscale thermophoresis (Monolith NT.[…]); assay type: binding; conditions: 50 mM Tris-HCl pH 8.0, 5 mM MnCl2, 37 °C; no primer listed; Hill coefficient fixed at 2; labelled compound (fluorescein); read-out: Kd, μM / Flu-dUTP
T2 construct: gene DNTT; expression per earlier publication
T2 sequence (P04053 whole entry F404W): as the sequence (P04053 whole entry) above, with F404W counted along it

[3] = molecular target: T3, TdT (human terminal deoxynucleotidyl transferase, hTdT) (Homo sapiens, UniProt P04053, F404A); test: microscale thermophoresis (Monolith NT.[…]); assay type: binding; conditions: 50 mM Tris-HCl pH 8.0, 5 mM MnCl2, 37 °C; no primer listed; Hill coefficient fixed at 2; labelled compound (fluorescein); read-out: Kd, μM / Flu-dUTP
T3 construct: gene DNTT; expression per earlier publication
T3 sequence (P04053 whole entry F404A): as the sequence (P04053 whole entry) above, with F404A counted along it

[4] = molecular target: T4, TdT (human terminal deoxynucleotidyl transferase, hTdT) (Homo sapiens, UniProt P04053, F400A); test: microscale thermophoresis (Monolith NT.[…]); assay type: binding; conditions: 50 mM Tris-HCl pH 8.0, 5 mM MnCl2, 37 °C; no primer listed; Hill coefficient fixed at 2; labelled compound (fluorescein); read-out: Kd, μM / Flu-dUTP
T4 construct: gene DNTT; expression per earlier publication
T4 sequence (P04053 whole entry F400A): as the sequence (P04053 whole entry) above, with F400A counted along it

[5] = molecular target: T5, TdT (human terminal deoxynucleotidyl transferase, hTdT) (Homo sapiens, UniProt P04053, L397A); test: microscale thermophoresis (Monolith NT.[…]); assay type: binding; conditions: 50 mM Tris-HCl pH 8.0, 5 mM MnCl2, 37 °C; no primer listed; Hill coefficient fixed at 2; labelled compound (fluorescein); read-out: Kd, μM / Flu-dUTP
T5 construct: gene DNTT; expression per earlier publication
T5 sequence (P04053 whole entry L397A): as the sequence (P04053 whole entry) above, with L397A counted along it

TdT L397A = TdT L397A (human, UniProt P04053 1-509, L397A); test: EMSA; 5 mM MgCl2; Hill h fixed at 2; EMSA: 50 mM Tris-HCl pH 8.0, 5 mM MgCl2, 7% glycerol; 0.5 uM FAM-M44, 0.06-10 uM protein; 10 min at 37 C then 5 min at 0 C; gel at 4 C; conditions: protein: recombinant; chain copies: 2; label: 5'-FAM; single strand
Chain of TdT L397A (P04053 whole entry L397A): as the sequence (P04053 whole entry) above, with L397A counted along it

TdT F404W = TdT F404W (human, UniProt P04053 1-509, F404W); test: as above; conditions: protein: recombinant; chain copies: 2; label: 5'-FAM; single strand
Chain of TdT F404W (P04053 whole entry F404W): as the sequence (P04053 whole entry) above, with F404W counted along it

TdT F400A = TdT F400A (human, UniProt P04053 1-509, F400A); test: as above; conditions: protein: recombinant; chain copies: 2; label: 5'-FAM; single strand
Chain of TdT F400A (P04053 whole entry F400A): as the sequence (P04053 whole entry) above, with F400A counted along it

TdT WT = TdT WT (human, UniProt P04053 1-509); test: as above; conditions: protein: recombinant; chain copies: 2; label: 5'-FAM; single strand
Chain of TdT WT (P04053 whole entry): as the sequence (P04053 whole entry) above

TdT F404A = TdT F404A (human, UniProt P04053 1-509, F404A); test: as above; conditions: protein: recombinant; chain copies: 2; label: 5'-FAM; single strand
Chain of TdT F404A (P04053 whole entry F404A): as the sequence (P04053 whole entry) above, with F404A counted along it

Molecule | Kd [1] [µM] | Kd [2] [µM] | Kd [3] [µM] | Kd [4] [µM] | Kd [5] [µM] | Kd (TdT L397A) [nM] | Kd (TdT F404W) [nM] | Kd (TdT F400A) [nM] | Kd (TdT WT) [nM] | Kd (TdT F404A) [nM]
Flu-dUTP | 0.9 ± 0.1 | 1 ± 0.1 | 1.5 ± 0.2 | 1.1 ± 0.1 | 1.5 ± 0.2 |  |  |  |  | 
ATGCTATGGATTGATGTGACTAAGGTTGGAATGATGTGAAGAGA (ssDNA) [FAM-M44] |  |  |  |  |  | 970 ± 80 | 1000 ± 100 | 980 ± 70 | 880 ± 80 | 1100 ± 90
